Measured values as given in patent publication US9511010B2, “Compounds useful in the treatment and/or care of the skin, hair and/or mucous membranes and their cosmetic or pharmaceutical compositions” (Lubrizol Advanced Materials, Inc., priority 2012, dated 2016).

Key:
FOXO response elements = experiment: Stimulation of the expression of proteins regulated by FOXO: luciferase reporter under FOXO response elements; type: cell-based, human; settings: 0.5 mg/mL, 24 hours; carrier (0.05% DMSO) = 100
Method: The activation capacity of the FOXO response elements was evaluated in a human epithelial cell line stably transfected with the luciferase gene under the control of a regulatory sequence which contains different FOXO response elements which are in the promoters of the FOXO target genes. The activation capacity of the FOXO response elements indicates the expression of proteins regulated by FOXO. 30,000 cells per well were seeded in a total volume of 100 μL of RPMI 1640 culture medium. After 24 hours the cells with RPMI 1640 culture medium were washed and were incubated with the compounds of the invention at 0.5 mg/mL for 24 hours in a total volume of 100 μL per well. The carrier in which the compounds of the invention were dissolved was used (0.05% DMSO) as a negative control.
The measurement of the activity of the promoter was carried out using the Steady-Go Luciferase Assay System kit following the manufacturer's instructions. The luminescence values (RLU/sec) caused by the reaction between luciferase and the substrate were quantified with a luminometer and normalized by the cell number (absorbance at 630 nm), and the activity of the promoter was determined, which was standardized with regard to the negative control values.
(§1) Each experiment was carried out three times in 3 independent experiments.

[1] = test system: HEKa primary keratinocytes; experiment: Host cell reactivation (HCR) assay, activation of DNA repair in primary keratinocytes; type: cell-based, human; settings: 24 hours, basal = 100
Method: The host cell reactivation (HCR) assay was used in HEKa primary keratinocytes to evaluate the capacity of the peptides of the invention to repair the damage to the DNA in a biologically functional way. 40,000 cells per well were seeded and they were co-transfected with a control plasmid which constitutively expresses the Firefly luciferase gene (pGL3), previously damaged by UVC, and with an undamaged plasmid which constitutively expresses the Renilla luciferase gene (vector pRluc-N1(h)).
Subsequently the cells were incubated with the compounds of the invention at 0.025 mg/mL and 0.5 mg/mL in EpiLife medium for 24 hours, after which the luminescence due to the activity of the Firefly and Renilla luciferases was measured using the Dual-Go Luciferase Assay System kit following the manufacturer's instructions. The carrier in which the compounds of the invention (EpiLife medium) were dissolved was used as a negative control. The activation percentage of the DNA repair for each sample was calculated standardizing the luminescence values of the Firefly luciferase with regard to the Renilla luciferase, subsequently standardizing with regard to the values of the negative control.
as §1

Substance | Stimulation Average (%) of the activation of the FOXO response factors (FOXO response elements) [%] | Activation Average (%) of DNA repair, HCR assay ([1]; 0.025 mg/mL) [%] | Activation Average (%) of DNA repair, HCR assay ([1]; 0.5 mg/mL) [%]
Ac-L-Tyr-L-Asn-L-Lys-Gly-L-Gln-L-Val-NH2 (Ac-YNKGQV-NH2) [Ac-SEQ ID NO: 1-NH2] | 143 | 150 | 290
Ac-L-Tyr-L-Asn-L-Lys-L-Leu-L-Gln-L-Val-NH2 (Ac-YNKLQV-NH2) [Ac-SEQ ID NO: 21-NH2] | 157 | 231 | 357
Ac-L-Tyr-L-Asn-L-Lys-L-Lys-L-Gln-L-Val-NH2 (Ac-YNKKQV-NH2) [Ac-SEQ ID NO: 8-NH2] | 106 |  | 
Ac-L-Tyr-L-Asn-L-Pro-L-His-L-Gln-L-Val-NH2 (Ac-YNPHQV-NH2) [Ac-SEQ ID NO: 18-NH2] | 148 |  | 
Ac-L-Tyr-L-Asn-L-Ser-L-His-L-Gln-L-Val-NH2 (Ac-YNSHQV-NH2) [Ac-SEQ ID NO: 41-NH2] | 129 |  | 
Ac-L-Tyr-L-Asn-L-Ser-L-Lys-L-Gln-L-Val-NH2 (Ac-YNSKQV-NH2) [Ac-SEQ ID NO: 27-NH2] | 128 |  | 
Ac-L-Tyr-L-Glu-L-Pro-L-His-L-Gln-L-Val-NH2 (Ac-YEPHQV-NH2) [Ac-SEQ ID NO: 40-NH2] | 131 |  | 
Ac-L-Tyr-L-Glu-L-Ser-Gly-L-Gln-L-Val-NH2 (Ac-YESGQV-NH2) [Ac-SEQ ID NO: 16-NH2] | 119 |  | 
Ac-L-Tyr-L-Glu-L-Ser-L-His-L-Gln-L-Val-NH2 (Ac-YESHQV-NH2) [Ac-SEQ ID NO: 19-NH2] | 145 | 191 | 304
Ac-L-Tyr-L-Glu-L-Ser-L-Lys-L-Gln-L-Val-NH2 (Ac-YESKQV-NH2) [Ac-SEQ ID NO: 24-NH2] | 133 | 295 | 271
Ac-L-Tyr-L-His-L-Lys-L-Leu-L-Gln-L-Val-NH2 (Ac-YHKLQV-NH2) [Ac-SEQ ID NO: 25-NH2] | 168 |  | 
Ac-L-Tyr-L-His-L-Pro-L-His-L-Gln-L-Val-NH2 (Ac-YHPHQV-NH2) [Ac-SEQ ID NO: 28-NH2] | 125 |  | 
Ac-L-Tyr-L-His-L-Ser-L-His-L-Gln-L-Val-NH2 (Ac-YHSHQV-NH2) [Ac-SEQ ID NO: 30-NH2] | 138 |  | 
Ac-L-Tyr-L-His-L-Ser-L-Lys-L-Gln-L-Val-NH2 (Ac-YHSKQV-NH2) [Ac-SEQ ID NO: 26-NH2] | 124 |  | 
Ac-L-Tyr-L-Tyr-L-Lys-L-Leu-L-Gln-L-Val-NH2 (Ac-YYKLQV-NH2) [Ac-SEQ ID NO: 23-NH2] | 174 |  | 
Ac-L-Tyr-L-Tyr-L-Pro-L-His-L-Gln-L-Val-NH2 (Ac-YYPHQV-NH2) [Ac-SEQ ID NO: 29-NH2] | 120 |  | 
Ac-L-Tyr-L-Tyr-L-Pro-L-Lys-L-Gln-L-Val-NH2 (Ac-YYPKQV-NH2) [Ac-SEQ ID NO: 42-NH2] | 133 |  | 
Ac-L-Tyr-L-Tyr-L-Ser-L-His-L-Gln-L-Val-NH2 (Ac-YYSHQV-NH2) [Ac-SEQ ID NO: 20-NH2] | 157 |  | 
